According to ChEMBL document CHEMBL1201862, “PubChem BioAssay data set” (2004):
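All cell lines were grown in 96-well plates and treated with compound for 48 hours. GI50 = concentration required for 50% inhibition of growth.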 Activity calls are given as the source filed them. Cut-off read from the data, not from the text of the source: active = GI50 up to about 1.1 µM and inactive = higher.

How the values were obtained:
Test in all cases: NCI tumour cell line growth inhibition, 48 h
A549 = test system: A549
RXF 393 = test system: RXF 393
NCI-H226 = test system: NCI-H226
COLO 205 = test system: COLO 205
MDA-MB-435 = test system: MDA-MB-435
SK-OV-3 = test system: SK-OV-3
NCI-H460 = test system: NCI-H460
HCT-15 = test system: HCT-15
CAKI-1 = test system: CAKI-1
MCF7 = test system: MCF7
HCT-116 = test system: HCT-116
T47D = test system: T47D
M14 = test system: M14
LOX IMVI = test system: LOX IMVI
HOP-62 = test system: HOP-62
SF-295 = test system: SF-295
CCRF-CEM = test system: CCRF-CEM
RPMI-8226 = test system: RPMI-8226
ACHN = test system: ACHN
OVCAR-8 = test system: OVCAR-8
DU-145 = test system: DU-145
PC-3 = test system: PC-3
SK-MEL-2 = test system: SK-MEL-2
OVCAR-4 = test system: OVCAR-4
NCI/ADR-RES = test system: NCI/ADR-RES
MOLT-4 = test system: MOLT-4
SW-620 = test system: SW-620
SK-MEL-28 = test system: SK-MEL-28
SK-MEL-5 = test system: SK-MEL-5
BT-549 = test system: BT-549
TK-10 = test system: TK-10
OVCAR-3 = test system: OVCAR-3
KM12 = test system: KM12
NCI-H23 = test system: NCI-H23
SNB-75 = test system: SNB-75
OVCAR-5 = test system: OVCAR-5
UO-31 = test system: UO-31
K562 = test system: K562
SNB-19 = test system: SNB-19
MDA-MB-231 = test system: MDA-MB-231
HCC 2998 = test system: HCC 2998
EKVX = test system: EKVX
HT-29 = test system: HT-29
SN12C = test system: SN12C
A498 = test system: A498
HOP-92 = test system: HOP-92
IGROV-1 = test system: IGROV-1
U-251 = test system: U-251
SF-539 = test system: SF-539
UACC-62 = test system: UACC-62
SR = test system: SR
786-0 = test system: 786-0
UACC-257 = test system: UACC-257
MDA-N = test system: MDA-N
SF-268 = test system: SF-268
NCI-H522 = test system: NCI-H522
HL-60 = test system: HL-60
Malme-3M = test system: Malme-3M

Compound: CC1=CCC[C@H]2[C@](C)(CC3=CC(=O)C(SCC(C)C)=CC3=O)[C@@H](C)CC[C@]12C
- GI50 (A549): 12.5 µM (inactive)
- GI50 (RXF 393): 9.68 µM (inactive)
- GI50 (NCI-H226): 11.8 µM (inactive)
- GI50 (COLO 205): 13.2 µM (inactive)
- GI50 (MDA-MB-435): 15.7 µM (inactive)
- GI50 (SK-OV-3): 19.5 µM (inactive)
- GI50 (NCI-H460): 14.6 µM (inactive)
- GI50 (HCT-15): 15.1 µM
- GI50 (CAKI-1): 11.3 µM (inactive)
- GI50 (MCF7): 9.71 µM (inactive)
- GI50 (HCT-116): 12 µM (inactive)
- GI50 (T47D): 2.25 µM (inactive)
- GI50 (M14): 18.2 µM (inactive)
- GI50 (LOX IMVI): 7.41 µM (inactive)
- GI50 (HOP-62): 14.6 µM (inactive)
- GI50 (SF-295): 16.1 µM (inactive)
- GI50 (CCRF-CEM): 1.79 µM (inactive)
- GI50 (RPMI-8226): 3.8 µM (inactive)
- GI50 (ACHN): 15.6 µM (inactive)
- GI50 (OVCAR-8): 13.3 µM (inactive)
- GI50 (DU-145): 14.7 µM (inactive)
- GI50 (PC-3): 15 µM (inactive)
- GI50 (SK-MEL-2): 15.9 µM (inactive)
- GI50 (OVCAR-4): 15.3 µM (inactive)
- GI50 (NCI/ADR-RES): 16 µM (inactive)
- GI50 (MOLT-4): 1.53 µM (inactive)
- GI50 (SW-620): 17.3 µM (inactive)
- GI50 (SK-MEL-28): 15.8 µM (inactive)
- GI50 (SK-MEL-5): 12.8 µM (inactive)
- GI50 (BT-549): 17.6 µM (inactive)
- GI50 (TK-10): 16.7 µM (inactive)
- GI50 (OVCAR-3): 17.4 µM (inactive)
- GI50 (KM12): 11.2 µM (inactive)
- GI50 (NCI-H23): 8.99 µM (inactive)
- GI50 (SNB-75): 10.9 µM (inactive)
- GI50 (OVCAR-5): 18.5 µM (inactive)
- GI50 (UO-31): 11.7 µM (inactive)
- GI50 (K562): 5.78 µM (inactive)
- GI50 (SNB-19): 18.3 µM (inactive)
- GI50 (MDA-MB-231): 24.6 µM (inactive)
- GI50 (HCC 2998): 16.3 µM (inactive)
- GI50 (EKVX): 16.7 µM (inactive)
- GI50 (HT-29): 15.4 µM (inactive)
- GI50 (SN12C): 24.9 µM (inactive)
- GI50 (A498): 18.8 µM (inactive)
- GI50 (HOP-92): 4.84 µM (inactive)
- GI50 (IGROV-1): 11 µM (inactive)
- GI50 (U-251): 14.3 µM (inactive)
- GI50 (SF-539): 18 µM (inactive)
- GI50 (UACC-62): 14.3 µM (inactive)
- GI50 (SR): 7.29 µM (inactive)
- GI50 (786-0): 14 µM (inactive)
- GI50 (UACC-257): 17.3 µM (inactive)

Compound: O=c1[nH]nc(Cc2ccccc2)n1-n1cnnc1
- GI50 (A549): > 100 µM (inactive)
- GI50 (RXF 393): > 100 µM (inactive)
- GI50 (COLO 205): > 100 µM (inactive)
- GI50 (MDA-N): > 100 µM (inactive)
- GI50 (MDA-MB-435): > 100 µM (inactive)
- GI50 (SK-OV-3): > 100 µM (inactive)
- GI50 (HCT-15): > 100 µM
- GI50 (MCF7): > 100 µM (inactive)
- GI50 (HCT-116): > 100 µM (inactive)
- GI50 (M14): > 100 µM (inactive)
- GI50 (LOX IMVI): > 100 µM (inactive)
- GI50 (HOP-62): > 100 µM (inactive)
- GI50 (SF-295): > 100 µM (inactive)
- GI50 (CCRF-CEM): > 100 µM (inactive)
- GI50 (RPMI-8226): > 100 µM (inactive)
- GI50 (ACHN): > 100 µM (inactive)
- GI50 (OVCAR-8): > 100 µM (inactive)
- GI50 (DU-145): > 100 µM (inactive)
- GI50 (PC-3): > 100 µM (inactive)
- GI50 (SK-MEL-2): > 100 µM (inactive)
- GI50 (OVCAR-4): > 100 µM (inactive)
- GI50 (NCI/ADR-RES): > 100 µM (inactive)
- GI50 (MOLT-4): > 100 µM (inactive)
- GI50 (SW-620): > 100 µM (inactive)
- GI50 (SK-MEL-28): > 100 µM (inactive)
- GI50 (SK-MEL-5): > 100 µM (inactive)
- GI50 (BT-549): > 100 µM (inactive)
- GI50 (TK-10): > 100 µM (inactive)
- GI50 (OVCAR-3): > 100 µM (inactive)
- GI50 (KM12): > 100 µM (inactive)
- GI50 (NCI-H23): > 100 µM (inactive)
- GI50 (SNB-75): > 100 µM (inactive)
- GI50 (OVCAR-5): > 100 µM (inactive)
- GI50 (UO-31): > 100 µM (inactive)
- GI50 (K562): > 100 µM (inactive)
- GI50 (SNB-19): > 100 µM (inactive)
- GI50 (MDA-MB-231): > 100 µM (inactive)
- GI50 (HCC 2998): > 100 µM (inactive)
- GI50 (EKVX): > 100 µM (inactive)
- GI50 (HT-29): > 100 µM (inactive)
- GI50 (SN12C): > 100 µM (inactive)
- GI50 (SF-268): > 100 µM (inactive)
- GI50 (HOP-92): > 100 µM (inactive)
- GI50 (IGROV-1): > 100 µM (inactive)
- GI50 (U-251): > 100 µM (inactive)
- GI50 (SF-539): > 100 µM (inactive)
- GI50 (UACC-62): > 100 µM (inactive)
- GI50 (SR): > 100 µM (inactive)
- GI50 (786-0): > 100 µM (inactive)
- GI50 (NCI-H522): > 100 µM (inactive)
- GI50 (UACC-257): > 100 µM (inactive)

Compound: CC(=O)OC1CCC2C3CCc4c(C)ccc(OS(=O)(=O)c5ccccc5)c4C3CCC12C (centres undefined)
- GI50 (RXF 393): 31.1 µM (inactive)
- GI50 (NCI-H226): 14.8 µM (inactive)
- GI50 (COLO 205): 18.6 µM (inactive)
- GI50 (MDA-N): > 100 µM (inactive)
- GI50 (MDA-MB-435): 41.7 µM (inactive)
- GI50 (SK-OV-3): 34.2 µM (inactive)
- GI50 (NCI-H460): 6.61 µM (inactive)
- GI50 (HCT-15): 7.73 µM
- GI50 (CAKI-1): 24 µM (inactive)
- GI50 (MCF7): 16.2 µM (inactive)
- GI50 (HCT-116): 3.37 µM (inactive)
- GI50 (LOX IMVI): 7.41 µM (inactive)
- GI50 (HOP-62): 26.4 µM (inactive)
- GI50 (SF-295): 25.5 µM (inactive)
- GI50 (CCRF-CEM): 19.1 µM (inactive)
- GI50 (RPMI-8226): 21.7 µM (inactive)
- GI50 (ACHN): 35.9 µM (inactive)
- GI50 (DU-145): 33.1 µM (inactive)
- GI50 (PC-3): 5.57 µM (inactive)
- GI50 (SK-MEL-2): 30.8 µM (inactive)
- GI50 (OVCAR-4): 21.8 µM (inactive)
- GI50 (MOLT-4): 6.32 µM (inactive)
- GI50 (SW-620): 63.5 µM (inactive)
- GI50 (SK-MEL-28): > 100 µM (inactive)
- GI50 (SK-MEL-5): 3.74 µM (inactive)
- GI50 (BT-549): 23.7 µM (inactive)
- GI50 (TK-10): 52.1 µM (inactive)
- GI50 (OVCAR-3): 7.33 µM (inactive)
- GI50 (NCI-H23): 16.3 µM (inactive)
- GI50 (OVCAR-5): 86.1 µM (inactive)
- GI50 (UO-31): 21.9 µM (inactive)
- GI50 (K562): 5.69 µM (inactive)
- GI50 (SNB-19): 47.1 µM (inactive)
- GI50 (MDA-MB-231): 19.3 µM (inactive)
- GI50 (HCC 2998): 64.9 µM (inactive)
- GI50 (EKVX): 46.9 µM (inactive)
- GI50 (HT-29): 13.1 µM (inactive)
- GI50 (SN12C): > 100 µM (inactive)
- GI50 (A498): 32.5 µM (inactive)
- GI50 (SF-268): > 100 µM (inactive)
- GI50 (HOP-92): 6.55 µM (inactive)
- GI50 (IGROV-1): 38.7 µM (inactive)
- GI50 (HL-60): 3.84 µM (inactive)
- GI50 (U-251): 13.6 µM (inactive)
- GI50 (UACC-62): 26.2 µM (inactive)
- GI50 (SR): 6.82 µM (inactive)
- GI50 (Malme-3M): 50.4 µM (inactive)
- GI50 (786-0): 6.76 µM (inactive)
- GI50 (NCI-H522): 27.2 µM (inactive)
- GI50 (UACC-257): 73.3 µM (inactive)
